Assay results as given in PMC4428793, “MK571 inhibits phase-2 conjugation of flavonols by Caco-2/TC7 cells, but does not specifically inhibit their apical efflux^” (Biochemical Pharmacology, 2015).

Tests used:
Caco-2/TC7 cells = assay: Flavonol metabolism and transport experiments on Caco-2/TC7 transwell monolayers, effect of MK571; assay type: cell-based, human; conditions: apical to basolateral ratio of efflux of the conjugate, 60 min, 12-well transwells
Method: Cells were grown at 37 °C in a humidified incubator with 5% CO2 in Dulbecco Modified Eagle's Medium (DMEM) containing 1% non-essential amino acids, 1% L-glutamine, 100 IU/mL penicillin and 100 μg/mL streptomycin, 1 g/L glucose, and supplemented with 20% (v/v) heat inactivated fetal calf serum. Cells were passaged at 80% confluency, and seeded at 2–4 × 10^4 cells per cm^2 on 10 cm dishes (growing area 75 cm^2) or 12-well transwells (growing area of 1.1 cm^2). […] Toxicity of MK571 on Caco-2/TC7 cell monolayers was determined through comparison of pre- and post-loading TEER values of wells incubated with MK571.
Flavonol stocks (quercetin, kaempferol, galangin; 10 mM) were prepared in dimethylsulfoxide (DMSO) and stored at −20 °C. MK571 was dissolved in dimethyl sulfoxide (10 mM final concentration) and stored at −20 °C. Prior to the metabolism or transport experiments, cells were aspirated of media and washed three times with phosphate buffered saline (PBS). To foetal calf serum and phenol red-free DMEM was added ascorbic acid at a final concentration of 100 μM as well as MK571 at the desired concentration. For metabolism experiments, 10 mL of this media was added to the cells in 10 cm dishes. For transport experiments using transwells, 0.6 mL of this media was added to the apical compartment of the transwell and 1 mL was added to the basolateral compartment. Control wells received an equivalent dose of dimethyl sulfoxide as the treatment wells. Cells were incubated at 37 °C for 30 min, after which flavonols dissolved in dimethyl sulfoxide (kaempferol, galangin or quercetin) were added to the media of treatment wells at a final concentration of 40 or 100 μM, while control wells were treated with the dimethyl sulfoxide vehicle alone. Concentrations of quercetin were increased to 100 μM because instability of quercetin in media necessitated higher initial loading to maintain adequate cellular and media concentrations for uptake and metabolism of the flavonol. Control and treatment cells were incubated at 37 °C for the periods indicated in the results.
Following the required incubation period, media and cell fractions were harvested and analysed to identify and quantify flavonol metabolites using HPLC. Media was removed from the apical (0.5 mL) and basolateral (0.5 mL) compartments of transwells and added to 25 μL trifluoroacetic acid and 25 μL HPLC grade acetonitrile. Media from 10 cm dishes (1 mL) was removed and added to 50 μL trifluoroacetic acid and 25 μL HPLC grade acetonitrile. Cells were washed three times with cold (room temperature) phosphate buffered saline solution and scraped free of the dish surface. For transwells, 100 μL MilliQ water was added to the cells and the resulting cell suspension pipetted into 10 μL trifluoroacetic acid and 10 μL HPLC grade acetonitrile. For 10 cm dishes, the resulting cell suspension was pipetted into 25 μL trifluoroacetic acid and 25 μL HPLC grade acetonitrile. Samples were either analysed immediately or otherwise stored at −20 °C prior to HPLC analysis. Flavonols were stable during frozen storage and thawing (no significant losses up to 26 weeks).
Media samples were thawed where necessary and then mixed using a vortex mixer, centrifuged for 10 min at 14,000 × g using a micro centrifuge, and the supernatant removed and placed in an HPLC vial for analysis. Cell samples were vortex-mixed and then ultra-sonicated (sonic water bath) for 10 min, vortex mixed again and then centrifuged for 10 min at 14,000 × g using a micro-centrifuge, before removal of supernatant for HPLC analysis. Identification and quantification of individual flavonol metabolites was carried out using liquid chromatography–mass spectrometry and nuclear magnetic resonance analyses, as described previously. […]

Caco-2/TC7 cell lysate = assay: Flavonol conjugate production by Caco-2/TC7 cell free lysate, effect of MK571; assay type: biochemical, human; conditions: aglycone 40 μM; for Change in rate (%): MK571 50 μM vs control; for Rate +MK571 (conjugate production): MK571 50 μM; for Rate +MK571 (conjugate production) / Rate control (conjugate production): slope (standard error of the slope); for Rate control (conjugate production): no MK571
Method: Cells were grown until 21 days post confluent and washed and aspirated as described previously. The cells were then scraped into tubes and these tubes kept on ice at all times throughout the preparation procedure. Homogenisation buffer comprised of sodium phosphate buffer (50 mM adjusted to pH 6.5; 20 mL), two mini protease inhibitor cocktail tablets containing EDTA and perfabloc, dithiothreitol (30.8 mg), alamethacin (20 μL of a 22 μg/mL) solution from T. viride; and MgCl2 (3.5 mg). Cell-free homogenates were prepared by mixing cells with homogenisation buffer (50:50, vol/vol) and vortexing with glass beads in an eppendorf tube three times for 1 min over a 10 min period. To 900 μL of cell free lysate was added 10 μL uridine 5′-diphosphoglucuronic acid (4 mM final concentration) with uridine 5′-diphospho-N-acetyl-glucosamine (dissolved in homogenisation buffer, 2 mM final concentration); 10 μL MK571 (50 mmol/L stock diluted 1:9 with homogenisation buffer) or 10 μL dimethyl sulfoxide blank (diluted 1:9 with homogenisation buffer). The tubes were allowed to warm and once they reached 37 °C, the flavonols were added at the relevant concentration (kaempferol, quercetin or galangin; 10 mmol/L stock in dimethyl sulfoxide diluted 1:1 with homogenisation buffer, plus homogenisation buffer added to create a final volume of 1000 μL) and the tube vortexed briefly. The experiment was stopped by addition of a mixture of 50 μL trifluoracetic acid and 50 μL acetonitrile. Samples were then centrifuged for 10 min at 14,000 × g. The supernatant was removed and analysed via HPLC.

| Compound | Ap:Bl ratio (50 μM MK571) (Caco-2/TC7 cells) | Ap:Bl ratio (No MK571) (Caco-2/TC7 cells) | Change in rate (%) (Caco-2/TC7 cell lysate) | Rate +MK571 (conjugate production) (Caco-2/TC7 cell lysate) | Rate control (conjugate production) (Caco-2/TC7 cell lysate) | Ap:Bl ratio (100 μM MK571) (Caco-2/TC7 cells) |
| --- | --- | --- | --- | --- | --- | --- |
| O=C(O)[C@H]1O[C@@H](Oc2c(-c3ccccc3)oc3cc(O)cc(O)c3c2=O)[C@H](O)[C@@H](O)[C@@H]1O [G-3-GlcA, galangin-3-glucuronide] | 0.35 (±0.091) | 0.24 (±0.033) | −63.2% | 25.3 (±2.30) pmol/h | 68.8 (±6.12) pmol/h |  |
| O=C(O)C1OC(Oc2cc(O)cc3oc(-c4ccccc4)c(O)c(=O)c23)C(O)C(O)C1O (centres unmarked) [G-5-GlcA] | 0.30 (±0.024) | 0.19 (±0.020) |  |  |  |  |
| O=C(O)[C@H]1O[C@@H](Oc2cc(O)c3c(=O)c(O)c(-c4ccccc4)oc3c2)[C@H](O)[C@@H](O)[C@@H]1O [G-7-GlcA, galangin-7-glucuronide] | 0.51 (±0.036) | 0.54 (±0.058) | −45.7% | 19.8 (±1.63) pmol/h | 36.5 (±1.49) pmol/h |  |
| O=C(O)[C@H]1O[C@@H](Oc2c(-c3ccc(O)cc3)oc3cc(O)cc(O)c3c2=O)[C@H](O)[C@@H](O)[C@@H]1O [K-3-GlcA, kaempferol-3-glucuronide] |  |  | −19.3% | 1.40 (±0.08) pmol/h | 1.73 (±0.16) pmol/h |  |
| O=C(O)[C@H]1O[C@@H](Oc2ccc(-c3oc4cc(O)cc(O)c4c(=O)c3O)cc2)[C@H](O)[C@@H](O)[C@@H]1O [K-4′-GlcA, kaempferol-4′-glucuronide] | 0.33 (±0.080) | 0.26 (±0.066) |  |  |  | 0.43 (±0.018) |
| O=C(O)[C@H]1O[C@@H](Oc2cc(O)c3c(=O)c(O)c(-c4ccc(O)cc4)oc3c2)[C@H](O)[C@@H](O)[C@@H]1O [K-7-GlcA, kaempferol-7-glucuronide] | 0.35 (±0.063) | 0.28 (±0.044) | −38.2% | 0.69 (±0.02) pmol/h | 1.12 (±0.09) pmol/h | 0.44 (±0.021) |
| O=C(O)[C@H]1O[C@@H](Oc2c(-c3ccc(O)c(O)c3)oc3cc(O)cc(O)c3c2=O)[C@H](O)[C@@H](O)[C@@H]1O [Q-3-GlcA] |  |  | −21.8% | 0.83 (±0.14) pmol/h | 1.05 (±0.09) pmol/h |  |
| O=C(O)[C@H]1O[C@@H](Oc2cc(-c3oc4cc(O)cc(O)c4c(=O)c3O)ccc2O)[C@H](O)[C@@H](O)[C@@H]1O [Q-3′-GlcA] | 100% apical | 100% apical | +25.6% | 2.62 (±0.24) pmol/h | 2.09 (±0.12) pmol/h |  |
| O=C(O)[C@H]1O[C@@H](Oc2ccc(-c3oc4cc(O)cc(O)c4c(=O)c3O)cc2O)[C@H](O)[C@@H](O)[C@@H]1O [Q-4′-GlcA] | 0.25 (±0.035) | 0.23 (±0.034) | +12.1% | 0.28 (±0.03) pmol/h | 0.25 (±0.01) pmol/h |  |
| O=C(O)[C@H]1O[C@@H](Oc2cc(O)c3c(=O)c(O)c(-c4ccc(O)c(O)c4)oc3c2)[C@H](O)[C@@H](O)[C@@H]1O [Q-7-GlcA] |  |  | −31.8% | 1.29 (±0.26) pmol/h | 1.89 (±0.16) pmol/h |  |
| galangin sulphate [G-S] | 9.10 (±0.783) | 13.6 (±1.440) |  |  |  |  |
| kaempferol sulphate [K-S] | 3.92 (±0.646) | 3.02 (±0.230) |  |  |  | 0.14 (±0.006) |
| kaempferol-sulfo-glucuronide [K-S-GlcA] | 0.42 (±0.121) | 0.59 (±0.174) |  | 0.34 (±0.02) pmol/h | 0.54 (±0.04) pmol/h | 0.43 (±0.028) |
